Source: patent US5155107A, “17β-substituted-4-aza-5α-androstan-3-one derivatives and process for their preparation” (Farmitalia Carlo Erba, priority 1990, dated 1992)
Read-outs that look alike come from different tables or passages of the source.

How the values were obtained:
[1] = target: T1, 5α-reductase (particulate fraction of human benign prostatic hypertrophy tissue) (Homo sapiens, UniProt P31213); assay: Inhibition of prostatic 5α-reductase in vitro; assay type: biochemical
T1 construct: homogenates of human benign prostatic hypertrophy tissue as the enzyme source; from tissue; host or cells: human benign prostatic hypertrophy tissue, 40,000×g particulate fraction (nuclei, microsomes, mitochondria)
T1 sequence (P31213 1-254): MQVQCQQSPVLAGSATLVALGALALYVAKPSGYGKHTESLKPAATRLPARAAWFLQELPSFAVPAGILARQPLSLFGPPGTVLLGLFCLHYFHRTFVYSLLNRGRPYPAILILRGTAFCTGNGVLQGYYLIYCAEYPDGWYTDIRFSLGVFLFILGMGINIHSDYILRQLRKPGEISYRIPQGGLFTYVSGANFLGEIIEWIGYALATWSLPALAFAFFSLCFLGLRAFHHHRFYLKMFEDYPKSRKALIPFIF
Protocol: For example, the inhibitory effect of the compounds of the invention on 5α-reductase was determined in vitro in comparison with progesterone taken as the reference compound, according to the procedure reported herebelow.
Inhibition of 5α-reductase was evaluated using the particulate fraction (containing nuclei, microsomes and mitochondria) from homogenates of human benign prostatic hypertrophy tissue as the enzyme source. The particulate fraction was prepared centrifuging prostate homogenate at 40,000×g. The resulting pellet, washed several times, was resuspended in buffer and stored at -80° C. in aliquots containing ≈10 mg protein/ml.
The assay for 5α-reductase was done in a final volume of 0.5 ml, containing 1 mM dithiothreitol, 40 mM TRIS-HCl buffer pH 5.0, 5 mM NADPH, 1 μM [4-^14 C]testosterone, 0.3 mg of prostate particulate fraction and various concentrations of the inhibitors. After 30 min incubation at 37° C. the reaction was terminated by addition of 1.5 ml diethyl ether and the organic phase was separated, evaporated under N2 and resuspended in ethyl acetate. Testosterone metabolites in this extract were separated in TLC on silica gel F 254 plates (Merck) using chloroform, acetone and n-hexane (2:1:2) as developing solvent system. Radioactivity on the plate was scanned and analyzed from quantitative plots printed by a TLC-analyzer (Berthold). The fractional 5α-reduction of testosterone was calculated by relating the ^14 C-radioactivity in the 5α-reduced metabolites (5α-dihydrotestosterone, 3α- and 3β-androstanediols) regions to the total radioactivity in the testosterone and 5α-reduced metabolites regions.
The concentration of each compound required to reduce control 5α-reductase by 50% (IC50) was determined by plotting % inhibition versus log of inhibitor concentration.
As an example, the potency of three representative compounds of the invention, namely 4-methyl-17β-[N-isopropyl-N-(N-isopropylcarbamoyl)carbamoyl]-4-aza-5α-androstan-3-one (Compound 1), 4-methyl-17β-[N-cyclohexyl-N-(N-cyclohexylcarbamoyl) carbamoyl-4-aza-5α-androstan-3-one (Compound 11) and 4-methyl-17β-[N-isopropyl-N-(N-isopropylthiocarbamoyl)carbamoyl-4-aza-5α-androstan-3-one (Compound 39) are reported in Table 1 in comparison with progesterone.

[2] = system: 5α-reductase of rat prostate; assay: Inhibition of prostate growth stimulated by testosterone propionate in castrated rats; assay type: in vivo; conditions: for Inhibition of prostate growth stimulated by testosterone propionate: 7 days, testosterone propionate 0.3 mg/kg/day s.c.
Protocol: The compounds of the invention were also tested for their in vivo potency in inhibiting 5α-reductase of rat prostate, according to the following procedure.
Prepuberal 21-day old male rat were castrated via scrotal incision in light ether anaesthesia.
Starting on the seventh day after orchiectomy, the rats were treated with testosterone propionate (0.3 mg/kg/day subcutaneously) for 7 consecutive days to stimulate prostate growth. The 5α-reductase inhibitors were given orally at various doses once daily for 7 days, together with the standard dose of testosterone propionate.
Thus, for example, in the above test the compound 1 of the present invention was compared with the well known 5α-reductase inhibitor 4-methyl-17β-N,N-diethyl-carbamoyl-4-methyl-4-aza-5α-androstan- 3-one, identified as 4-MA and described, e.g., in U.S. Pat. No. 4,377,584) giving the results reported in the following Table 2.

[3] = target: T2, cytoplasmic androgen (rat prostate) receptors (Rattus norvegicus, UniProt P15207); assay: Rat prostate androgen receptor binding (inhibition of 3H-DHT binding); parameters: species or system Sprague-Dawley rats
T2 construct: Prostatic tissue, obtained from adrenalectomized and castrated Sprague-Dawley rats; from tissue; host or cells: prostate cytosol of adrenalectomized and castrated Sprague-Dawley rats
T2 sequence (P15207 1-902): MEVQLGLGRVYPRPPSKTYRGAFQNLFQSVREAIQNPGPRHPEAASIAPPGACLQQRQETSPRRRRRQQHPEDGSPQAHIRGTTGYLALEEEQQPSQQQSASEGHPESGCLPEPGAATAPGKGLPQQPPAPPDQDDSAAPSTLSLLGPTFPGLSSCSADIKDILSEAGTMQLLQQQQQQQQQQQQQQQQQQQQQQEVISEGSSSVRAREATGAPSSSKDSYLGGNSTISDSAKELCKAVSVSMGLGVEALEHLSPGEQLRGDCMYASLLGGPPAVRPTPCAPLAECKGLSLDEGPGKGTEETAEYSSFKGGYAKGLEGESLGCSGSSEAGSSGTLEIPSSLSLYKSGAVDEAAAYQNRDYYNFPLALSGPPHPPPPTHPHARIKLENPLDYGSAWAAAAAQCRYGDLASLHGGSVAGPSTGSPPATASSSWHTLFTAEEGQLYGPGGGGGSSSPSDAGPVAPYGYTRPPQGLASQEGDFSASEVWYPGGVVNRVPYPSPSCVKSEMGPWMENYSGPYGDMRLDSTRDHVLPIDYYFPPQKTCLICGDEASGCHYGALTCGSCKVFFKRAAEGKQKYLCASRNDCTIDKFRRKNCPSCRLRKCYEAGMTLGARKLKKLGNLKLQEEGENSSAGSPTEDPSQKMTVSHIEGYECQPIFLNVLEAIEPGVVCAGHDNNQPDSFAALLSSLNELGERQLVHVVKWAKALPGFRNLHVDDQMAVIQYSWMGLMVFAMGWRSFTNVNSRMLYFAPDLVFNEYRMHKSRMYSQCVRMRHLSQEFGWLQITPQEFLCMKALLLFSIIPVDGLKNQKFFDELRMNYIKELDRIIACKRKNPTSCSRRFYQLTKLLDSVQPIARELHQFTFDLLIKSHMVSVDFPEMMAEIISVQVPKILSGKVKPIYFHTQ
Protocol: For their use in androgen- dependent conditions, the 5α-reductase inhibitors, should have a very low intrinsic androgenic activity, which can be shown by the binding affinity to the androgen receptor.
A low binding affinity to the androgen receptor is therefore desirable in a 5α-reductase inhibitor for use in the treatment of androgen dependent conditions.
Binding affinity to cytoplasmic androgen (rat prostate) receptors was determined by standard dextran-coated absorption technique (Raynaud J. P. et al., J. Steroid. Biochem. 6: 615-622, 1975).
Prostatic tissue, obtained from adrenalectomized and castrated Sprague-Dawley rats, was homogenized in 10 mM Tris HCl pH 7.4, containing 1.5 mM EDTA and 1 mM dithiothreitol in motor driven tissue grinders. The homogenate was centrifuged at 10,000×g for 1 h at 4° C.
Aliquots of cytosol 00.2 ml) were incubated for 2 hours at 0° C. with various concentrations of the test compounds, in duplicate, and a fixed amount of ^3 H-dihydrotesterone (DHT) final concentration 1 nM in 0.4 ml of incubation volume).
Then, free radioactivity was absorbed on 0.2 ml of dextran-coated charcoal suspension and after centrifugation at 1,500×g for 10 min., the bound radioactivity in the supernatant was determined by liquid scintillation in Rialuma.
The concentration of each compound required to reduce specific ^3 H-DHT binding by 50% (IC50) was determined from a plot of bound radioactivity versus log of competitor concentration.
In the above test the Compound 1 of the present invention was compared with the same above identified reference compound 4-MA and the obtained results are reported in the following Table 3.

[4] = human BPH particulate fraction, 1 μM [4-14C]testosterone, pH 5.0, 30 min, 37° C., read-out: Inhibition of prostatic 5α-reductase IC50

SMILES: CC(=O)[C@H]1CC[C@H]2[C@@H]3CCC4=CC(=O)CC[C@]4(C)[C@H]3CC[C@]12C [Progesterone, progesterone, reference compound]
- IC50 [1]: 1980 nM

SMILES: CN1C(=O)CC[C@]2(C)[C@H]3CC[C@]4(C)[C@@H](C(=O)N(C(=O)NC5CCCCC5)C5CCCCC5)CC[C@H]4[C@@H]3CC[C@@H]12 [Compound 11, 4-methyl-17β-[N-cyclohexyl-N-(N-cyclohexylcarbamoyl)carbamoyl]-4-aza-5α-androstan-3-one]
- IC50 [1, 4]: 41 nM

SMILES: CC(C)NC(=S)N(C(=O)[C@H]1CC[C@H]2[C@@H]3CC[C@H]4N(C)C(=O)CC[C@]4(C)[C@H]3CC[C@]12C)C(C)C [Compound 39, 4-methyl-17β-[N-isopropyl-N-(N-isopropylthiocarbamoyl)carbamoyl]-4-aza-5α-androstan-3-one]
- IC50 [1, 4]: 11 nM

SMILES: CC(C)NC(=O)N(C(=O)[C@H]1CC[C@H]2[C@@H]3CC[C@H]4N(C)C(=O)CC[C@]4(C)[C@H]3CC[C@]12C)C(C)C [Compound 1, 4-methyl-17β-[N-isopropyl-N-(N-isopropylcarbamoyl)carbamoyl]-4-aza-5α-androstan-3-one]
- Inhibition of prostate growth stimulated by testosterone propionate ([2]; 3 mg/kg/day p.o.): 33%
- Inhibition of prostate growth stimulated by testosterone propionate ([2]; 10 mg/kg/day p.o.): 55%
- IC50 [3]: 150000 nM
- selectivity versus androgen receptor binding ([3]; Compound 1 versus reference compound 4-MA): more selective than the reference compound 4-MA
- displacement of DHT from the prostatic androgen receptor ([3]; Table 3): displaces DHT from the prostatic androgen receptor only at a very high concentration
- IC50 [1, 4]: 55 nM

SMILES: CCN(CC)C(=O)[C@H]1CC[C@H]2[C@@H]3CC[C@H]4N(C)C(=O)CC[C@]4(C)[C@H]3CC[C@]12C [Compound 4-MA, 4-methyl-17β-N,N-diethyl-carbamoyl-4-methyl-4-aza-5α-androstan-3-one]
- Inhibition of prostate growth stimulated by testosterone propionate ([2]; 3 mg/kg/day p.o.): 1%
- Inhibition of prostate growth stimulated by testosterone propionate ([2]; 10 mg/kg/day p.o.): 0%
- Inhibition of prostate growth stimulated by testosterone propionate ([2]; 30 mg/kg/day p.o.): 49%
- in vivo effect on the hypertrophic response to testosterone propionate ([2]; same dose, 10 mg/kg/day oral): completely ineffective
- displaces DHT at a concentration lower than Compound 1 (fold) ([3]; 4-MA versus Compound 1): 60 times lower
- IC50 ([3]; rat prostate cytosol, 1 nM 3H-DHT, 2 hours, 0° C., read-out: Inhibition of DHT binding IC50): 2500 nM
